Results taken from patent US20230192646A1, “DIHYDRO-CYCLOPENTA-ISOQUINOLINE DERIVATIVES” (UCB Biopharma SRL, priority 2019, published 2023).

Target: T1, IgE-Tb / sFcεR1α-AF488 (WT soluble IgE receptor FcεR1α) (Homo sapiens, UniProt P01854, N146Q/N252Q, form not given)
T1 construct: fused on or other part: LanthaScreen amine-reactive terbium chelate, chemically conjugated (about 4 Tb per IgE-Fc); a label, not a fusion
Assay: In vitro FRET assay of IgE-Tb binding to sFcεR1α-AF488 (WT), 18 hours incubation (examples 17-35, 48-52 and 63)
Details: 0.75 nM IgE-Tb, 0.9 nM sFcεR1α-AF488; 18 hours at room temperature; read-out: FRET IC50 range
Description: 86 nmoles of IgE-Fc(N265Q, N371Q) (Young et al., 1995) at 172 μM in 100 mM NaHCO3, pH 9.5 was added to 1 mg of LanthaScreen™ Amine Reactive Tb Chelate (ThermoFisher catalogue number PV3583) and incubated for 16 hours at 20° C. The material was then buffer exchanged into Phosphate Buffered Saline (being, 137 mM NaCl, 2.7 mM KCl, 10 mM Na2HPO4, 1.8 mM K2HPO4, pH 7.4) and the material quantified and the degree of Tb conjugation determined by measuring the absorption at 280 nm and 343 nm.
To a solution of 1.32 μmoles WT FcεR1α, at 377 μM, in 100 mM NaOAc pH 5.5, was slowly added 50 mM sodium periodate (70 μL) in 100 mM NaOAc, pH 5.5, with gentle mixing, to give a final concentration of 1 mM. […]
175 nmoles of protein was added to 1 mg of Alexa Fluor™ 488 hydrazide (Invitrogen) and incubated for 18 hours at 22° C. with gentle mixing. […] The material was quantified, and the degree of Alexa Fluor™ 488 conjugation determined by measuring the absorption at 280 nm and 497 nm. […]
The aim was to measure binding of IgE-Tb to receptor, and the inhibition thereof by compounds, using an in vitro Fluorescence Resonance Energy Transfer (FRET) Assay. […]
Measurement of FRET for each well was carried out by exciting at 337 nm and measuring emission at 490/520 nm using a PHERAstar FSX plate reader (BMG Labtech). FRET ratio was calculated as follows: […]

T1 sequence (P01854 whole entry C105A/N146Q/N252Q, form open, the tested form may be a part): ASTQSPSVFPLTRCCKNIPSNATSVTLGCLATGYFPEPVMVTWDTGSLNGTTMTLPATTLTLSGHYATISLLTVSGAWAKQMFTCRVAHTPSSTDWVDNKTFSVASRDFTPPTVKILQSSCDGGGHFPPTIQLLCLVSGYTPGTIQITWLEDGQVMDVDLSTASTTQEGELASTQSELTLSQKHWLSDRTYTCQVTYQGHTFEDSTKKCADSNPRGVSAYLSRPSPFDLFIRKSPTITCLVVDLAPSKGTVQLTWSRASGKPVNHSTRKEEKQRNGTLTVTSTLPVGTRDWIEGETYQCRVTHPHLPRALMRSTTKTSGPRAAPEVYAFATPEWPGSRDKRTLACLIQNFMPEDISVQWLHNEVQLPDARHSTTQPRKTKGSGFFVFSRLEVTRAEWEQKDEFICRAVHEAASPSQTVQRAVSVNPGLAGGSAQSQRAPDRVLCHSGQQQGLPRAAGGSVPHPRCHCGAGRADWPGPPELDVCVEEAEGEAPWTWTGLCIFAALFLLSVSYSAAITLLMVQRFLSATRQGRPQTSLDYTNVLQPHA

COc1ccc(CNC(=O)N[C@H]2C[C@H](Nc3cncc(OC)c3)c3c2cc(S(=O)(=O)NCC(C)C)c2cc(C4CC4)ncc32)cc1 (racemic) [Example 18, 1-[(4-methoxyphenyl)methyl]-3-[trans-(7R,9RS)-3-cyclopropyl-9-[(5-methoxypyridin-3-yl)amino]-5-(2-methylpropylsulfamoyl)-8,9-dihydro-7H-cyclopenta[h]isoquinolin-7-yl]urea]
IC50: 1 to 10 nM
